Experiments:
[1] = Polymorph screening of solid state drug substances; assay type: physicochemical; details: for Dry method and appearance: after stirring at 50 °C for 72 hours; for XRPD results (Dried): dried solid
[2] = Plasma stability, rat plasma (HPLC-MS); assay type: in vitro ADME; details: 10 μM, 37° C.
Method: Plasma stability determination of the test compounds in rat, dog, cynomolgus monkey and human plasma is performed using HPLC-MS. For rat, incubations are carried out in 96-well polypropylene plates in 5 aliquots of 70 μL each (one for each time point). […] Five time points are analyzed (0, 15, 120, 480 and 1440 min). For dog, monkey and human, test compounds (2 μM, final solvent concentration 1%) were also incubated at 37° C. and analyzed at five time points (0, 10, 30, 60 and 120 min). All incubations are performed in duplicates. The samples are analyzed by HPLC-MS. The percentage of parent compound remaining after incubation in plasma is determined.

[3] = Solubility determination in oil (cottonseed oil, sesame oil), HPLC
Method: A known amount of test substance (˜40 mg) was weighed into the vial, 100 μL of oil was added and heated to 60° C. and then system was slurried to reach equilibrium. […] Then the clear solution was placed at room temperature (25° C.) for 24 h to confirm whether there was solid precipitation. Extra oil was added into the vial once compound precipitated out and then the system was re-equilibrated at 1000 rpm at room temperature (25° C.). Final concentration was determined by HPLC method as described below in Table 6a and 6b.

[4] = Heating Temp. 60 °C, Obs. Temp. 25 °C

| Structure (SMILES) | Dry method and appearance ([1]; Acetone) | XRPD results (Dried) ([1]; Acetone) | Visual observation RT ([1]; Acetone, target conc. 100 mg/ml, RT) | Dry method and appearance ([1]; EtOAc) | XRPD results (Dried) ([1]; EtOAc) | Dry method and appearance ([1]; Heptane) | XRPD results (Dried) ([1]; Heptane) | Dry method and appearance ([1]; Isopropanol) | XRPD results (Dried) ([1]; Isopropanol) | Dry method and appearance ([1]; MTBE) | XRPD results (Dried) ([1]; MTBE) | % remaining at time point in minutes, 0 min [2] [%] | % remaining at time point in minutes, 15 min [2] [%] | % remaining at time point in minutes, 1440 min [2] [%] | Approximate Solubility in Excipient: Cottonseed oil ([3]; Heating Temp. 40 °C, Obs. Temp. 40 °C) [mg/mL] | % remaining at time point in minutes, 120 min [2] [%] | % remaining at time point in minutes, 480 min [2] [%] | Approximate Solubility in Excipient: Cottonseed oil [3, 4] [mg/mL] | Approximate Solubility in Excipient: Sesame oil [3, 4] [mg/mL] | Approximate Solubility in Excipient: Sesame oil ([3]; Heating Temp. 60 °C, Obs. Temp. 40 °C) [mg/mL] |
| --- | --- | --- | --- | --- | --- | --- | --- | --- | --- | --- | --- | --- | --- | --- | --- | --- | --- | --- | --- | --- |
| C=C1CC[C@@]2(O)C3Cc4ccc(OC(=O)CCCCCCCCCCCCCCCCCCCCC)c5c4[C@@]2(CCN3CC2CC2)[C@H]1O5 [Compound 14, (4aS,7aS,12bS)-3-(cyclopropylmethyl)-4a-hydroxy-7-methylene-2,3,4,4a,5,6,7,7a-octahydro-1H-4,12-methanobenzofuro[3,2-e]isoquinolin-9-yl docosanoate] | Evaporation/white powder | Pattern A | Slurry | Evaporation/white powder | Pattern A | Centrifugation/white powder | Pattern B | Evaporation/white powder | Pattern A | Evaporation/white powder | Pattern A | 100 | 94 | 120 |  |  |  |  |  |  |
| C=C1CC[C@@]2(O)C3Cc4ccc(OC(=O)CCC5CCCC5)c5c4[C@@]2(CCN3CC2CC2)[C@H]1O5 [Compound 39, (4aS,7aS,12bS)-3-(cyclopropylmethyl)-4a-hydroxy-7-methylene-2,3,4,4a,5,6,7,7a-octahydro-1H-4,12-methanobenzofuro[3,2-e]isoquinolin-9-yl 3-cyclopentylpropanoate] |  |  |  |  |  |  |  |  |  |  |  |  |  |  | 225 to 402.2 |  |  |  |  |  |
| C=C1CC[C@@]2(O)C3Cc4ccc(OC(=O)OCCCCCCCCCCCCCC)c5c4[C@@]2(CCN3CC2CC2)[C@H]1O5 [Compound 31, (4aS,7aS,12bS)-3-(cyclopropylmethyl)-4a-hydroxy-7-methylene-2,3,4,4a,5,6,7,7a-octahydro-1H-4,12-methanobenzofuro[3,2-e]isoquinolin-9-yl tetradecyl carbonate] | Evaporation/white powder | Pattern A |  | Evaporation/white powder | Pattern A | Evaporation/white powder | Pattern A | Evaporation/white powder | Pattern A | Evaporation/white powder | Pattern A | 100 |  |  |  |  |  |  |  |  |
| CCCCCCCCCCOC(=O)Oc1ccc2c3c1O[C@H]1C(=O)CC[C@@]4(O)C(C2)N(CC2CC2)CC[C@]314 [Compound 10, (4aS,7aR,12bS)-3-(cyclopropylmethyl)-4a-hydroxy-7-oxo-2,3,4,4a,5,6,7,7a-octahydro-1H-4,12-methanobenzofuro[3,2-e]isoquinolin-9-yl decyl carbonate] | Evaporation/White wax | Pattern A |  | Evaporation/White wax | Pattern A | Centrifugation/White wax | Pattern A | Evaporation/White wax | Pattern A | Evaporation/White wax | Pattern A | 100 | 0 | 0 |  | 0 | 0 |  |  |  |
| C=C1CC[C@@]2(O)C3Cc4ccc(OC(=O)CCCCCCC/C=C\C/C=C\CCCCC)c5c4[C@@]2(CCN3CC2CC2)[C@H]1O5 [Compound 37, (4aS,7aS,12bS)-3-(cyclopropylmethyl)-4a-hydroxy-7-methylene-2,3,4,4a,5,6,7,7a-octahydro-1H-4,12-methanobenzofuro[3,2-e]isoquinolin-9-yl (9Z,12Z)-octadeca-9,12-dienoate] |  |  |  |  |  |  |  |  |  |  |  |  |  |  |  |  |  | 68.5 to 82 |  |  |
| CCCCC/C=C\C/C=C\CCCCCCCC(=O)Oc1ccc2c3c1O[C@H]1C(=O)CC[C@@]4(O)C(C2)N(CC2CC2)CC[C@]314 [Compound 53, (4aS,7aR,12bS)-3-(cyclopropylmethyl)-4a-hydroxy-7-oxo-2,3,4,4a,5,6,7,7a-octahydro-1H-4,12-methanobenzofuro[3,2-e]isoquinolin-9-yl (9Z,12Z)-octadeca-9,12-di.enoate] |  |  |  |  |  |  |  |  |  |  |  | 100 |  | 1.9 |  |  | 7.3 | >408.5 | >401.9 | >406.3 |
| CCCCCCCCCCCCCCCC(=O)Oc1ccc2c3c1O[C@H]1C(=O)CC[C@@]4(O)C(C2)N(CC2CC2)CC[C@]314 [Compound 55, (4aS,7aR,12bS)-3-(cyclopropylmethyl)-4a-hydroxy-7-oxo-2,3,4,4a,5,6,7,7a-octahydro-1H-4,12-methanobenzofuro[3,2-e]isoquinolin-9-yl palmitate] | Evaporation/white powder | Pattern B |  | Evaporation/white powder | Pattern B | Evaporation/white powder | Pattern B | Evaporation/white powder | Pattern B | Evaporation/white powder | Pattern B | 100 |  |  |  |  |  |  |  |  |
| CCCCCCCC/C=C/CCCCCCCC(=O)OCOc1ccc2c3c1O[C@H]1C(=O)CC[C@@]4(O)C(C2)N(CC2CC2)CC[C@]314 [Compound 26, (((4aS,7aR,12bS)-3-(cyclopropylmethyl)-4a-hydroxy-7-oxo-2,3,4,4a,5,6,7,7a-octahydro-1H-4,12-methanobenzofuro[3,2-e]isoquinolin-9-yl)oxy)methyl (E)-octadec-9-enoate] |  |  |  |  |  |  |  |  |  |  |  |  |  |  |  |  |  | 204.3 to 239 |  |  |
| CCCCCCCCCCCCOC(=O)Oc1ccc2c3c1O[C@H]1C(=O)CC[C@@]4(O)C(C2)N(CC2CC2)CC[C@]314 [Compound 11, (4aS,7aR,12bS)-3-(cyclopropylmethyl)-4a-hydroxy-7-oxo-2,3,4,4a,5,6,7,7a-octahydro-1H-4,12-methanobenzofuro[3,2-e]isoquinolin-9-yl dodecyl carbonate] | Evaporation/white powder | Pattern A |  | Evaporation/white powder | Pattern A | Evaporation/white powder | Pattern B | Evaporation/white powder | Pattern A | Evaporation/white powder | Pattern A | 100 | 0.7 | 0 |  | 0.3 | 0.2 |  |  |  |

Reference: patent publication US10544154B2, “Opioid receptor antagonist prodrugs” (Nirsum Laboratories, Inc., priority 2017, dated 2020)
